Consider three compounds from patent US12251373B2, “Compounds and methods of treating retinal degeneration” (CASE WESTERN RESERVE UNIVERSITY, priority 2017, dated 2025).

Where two headings read alike, the source gives them in different places. A value given as a limit tells only on which side of the number the result lay.

For one series, the target named is T1, mouse P23H opsin (Mus musculus, UniProt P15409, P23H).
T1 construct: expressed in transfected cells
As to the kind of experiment: Immunostain and image-based high-content analysis of P23H mutant opsin in NIH3T3 cells. The format is cell-based. The following applies: for effect on cell number: NIH3T3 cells, YC-001 up to 40 μM, 9-cis-retinal higher than 10 μM; for P23H opsin on the plasma membrane: dose-dependent, FIG. 2; for Immunostaining HCS MEM-Total ratio Max (fit) / EC50: ratio of P23H rod opsin fluorescence on plasma membrane to whole cell; for EC50: 1440 min, read-out: Immunostaining HCS MEM-Total ratio EC50. From the text:
Three NIH3T3 stable cell lines, NIH3T3-(WT-opsin/GFP), NIH3T3-(P23H-opsin/GFP), and NIH3T3-(GFP) were previously generated which stably express mouse WT opsin and GFP; P23H opsin and GFP; and only GFP, respectively. GFP is expressed separately from opsin in these cell lines. NIH3T3 cells were from ATCC. DNA constructs for generating these stable cell lines were confirmed by Sanger sequencing. Expression of GFP was confirmed by green fluorescence imaging, and expression of P23H and WT opsin were confirmed by immunoblots.
To characterize the effect of active compounds on the localization of P23H mutant opsin in mammalian cells, an image-based assay was used with cells immunostained for WT or P23H mutant opsin protein. Briefly, NIH3T3-(P23H-opsin/GFP) or NIH3T3-(WT-opsin/GFP) cells were seeded at 5,000 cells per well in a 384-well cell-carrier plate (PerkinElmer) and incubated at 37° C. with 5% CO2 for 2 h. Cells were treated with compounds as described for the β-Gal fragment complementation assay and incubated in assay medium for 24 h. The assay medium then was aspirated, and cells were fixed with 4% paraformaldehyde at 20 μL per well for 20 min at RT. Cells were immunostained in one of two ways: cell membranes were either permeabilized with 0.1% Triton X-100 for 15 min or left intact and then were incubated with 10% goat serum (Life Technologies). To detect opsin on the cell plasma membrane only, intact cells were immunostained with 20 μL per well of 20 μg mL^−1 B6-30 anti-rhodopsin antibody that recognizes the N-terminal epitope on the extracellular side of rhodopsin. To detect total opsin, cells were permeabilized with Triton X-100 and immunostained with 50 μg mL^−1 1D4 anti-rhodopsin antibody specific for the C-terminal epitope on the intracellular side of rhodopsin. Opsin immunostaining was visualized by incubating cells with 5 μg mL^−1 Cy3-conjugated goat anti-mouse IgG antibody. Three washes with phosphate-buffered saline (PBS: 10 mM Na2HPO4, 1.8 mM KH2PO4, pH 7.4, 137 mM NaCl, and 2.7 mM KCl) were performed between each step of incubation with antibody. In the last wash with PBS, DAPI was added to each well at 300 nM. Fluorescence images were obtained with the Operetta High Content Imaging System (PerkinElmer) using a 20× long objective. Five fields were taken of each well for cell images using three channels for fluorescence: GFP (100 ms), Cy3 (300 ms), and DAPI (50 ms). Images were analyzed with Acapella software from the Columbus data storage and analysis system (PerkinElmer). For cells immunostained with opsin on the non-permeabilized cell membrane only, an average of total fluorescence intensity of Cy3 per cell was used to quantify opsin in each well of the 384-well plate. For cells immunostained with opsin in permeabilized whole cells, an average ratio of Cy3 intensity on the cell plasma membrane (PM) to that of the entire cell (opsin ratio PM-to-total) was calculated for each well of a 384-well plate to quantify opsin transport to the plasma membrane. The plasma membrane was defined within ±5% of the cell border.

The target of a further series is mouse P23H opsin mutant (Mus musculus, UniProt P15409, P23H). The experiment in a line: β-Gal fragment complementation assay: rescue of P23H opsin transport from ER to plasma membrane, U2OS(PLC-EA/P23H-PK) cells. The class given is cell-based. The following applies: for Emax: U2OS; for dependence of activity on light exposure of cells: cells exposed to light vs dark. From the text:
U2OS(PLC-EA/P23H-PK) cells. A U2OS stable cell line was generated by DiscoveRx, Inc. (Fremont, CA, USA) for the β-Gal fragment complementation assay used in the small molecule HTS for rescue of P23H opsin transport. U2OS cells that continually express P23H-PK and PLC-EA fusion proteins were generated. Briefly, this small subunit of […] (PK fragment) was fused to the C-terminal of the mouse P23H opsin mutant, while the large EA fragment, a subunit of […], was fused with PLC, a plasma membrane anchored peptide. Both constructs were subcloned by DicoveRx, Inc. and transferred into U2OS cells by viral infections. Positive clones were selected under treatment with hygromycin and geneticin.
Briefly, U2OS(PLC-EA/P23H-PK) cells were suspended in assay medium at 3×10^5 cells mL^−1. The cell suspension was dispensed into 384-well plates (Greiner Bio-one, Monroe, NC, USA) at 20 μL per well, with a Multidrop dispenser (Thermo Scientific, Waltham, MA, USA). Plates with cells then were centrifuged at 200 g for 15 s before incubation at 37° C. with 5% CO2. Plates were removed 24 h later for treatment with tested compounds. A total of 248 plates containing 79,080 compounds from three small molecule libraries were paired with an equal number of assay plates with cultured cells. Due to a limited capacity, these plates were assayed in seven batches. An average of 56.3 nL of 10 mM compound in DMSO was dispensed into each well from column 3 to 22 of paired assay plates using a 50 nL 384-pintool system, such that the final concentration of each compound was 22.52 μM on average. […] Each assay plate was shaken for 5 s before further incubation at 37° C. with 5% CO2. […] Assay plates were incubated in the dark for 60-90 min, and luminescence was read from each assay plate with an Envision microplate reader (PerkinElmer) during a 0.1 s per well integration time. The mean and s.d. of readouts in column 2 of each plate were calculated as Mean0% and SD0%, whereas the average and s.d. of readouts in column 23 were calculated as Mean100% and SD100%. Equation 1: Activity scores (%)=(RLUcp−Mean0%)/(Mean100%−Mean0%)×100%, where RLUcp is the relative luminescence unit derived for cells treated with a compound. Equation 2: Z′-factor=1-3×(SD0%+SD100%)/(Mean100%−Mean0%); Equation 3: signal-to-background (S/B) ratio=Mean100%/Mean0%. Activities of all tested compounds were registered with their compound ID by GeneData Screener (Genedata, Basel, Switzerland) and Pipeline Pilot software (Accelrys, San Diego, CA, USA). Hits, cherry-picked from a separate stock dose-dependent activity test, were selected with an activity score cutoff at 20%. Activity of each hit was tested again with the β-Gal fragment complementation assay in a 10-dose series with each dose tested in triplicate. The 10 doses tested were 80, 40, 20, 10, 5, 2.5, 1.25, 0.625, 0.313, and 0.156 μM. Dose-dependent curves of each hit compound were fitted with GeneData and Origin software.
Detailed synthetic steps are described in FIG. 18. […] YC-002-YC-021 were purchased from commercial vendors including Enamine LLC (Monmouth Jct., NJ, USA), Matrix Scientific (Columbia, SC, USA) and Tokyo Chemical Industry Co., Ltd. (Portland, OR, USA). […] Activities of YC compounds were tested with the β-Gal fragment complementation assay, as described in a prior section. All YC compounds were tested at 10 doses, each in triplicate: 80, 40, 20, 10, 5, 2.5, 1.25, 0.625, 0.313, and 0.156 μM.

The mark [1] stands for this setting: Table 1, scores relative to 9-cis-retinal, read-out: β-Gal fragment complementation assay Activity score (%) EC50.
Where [2] appears, read: Table 1, experimental maximum, read-out: β-Gal fragment complementation assay Activity score (%) Max (Exp).
Where [3] appears, read: Table 1, fitted maximum, read-out: β-Gal fragment complementation assay Activity score (%) Max (fit).

For `CC1=C(/C=C/C(C)=C\C=C\C(C)=C\C=O)C(C)(C)CCC1` [9-cis-retinal, reference compound], at mouse P23H opsin, the “effect on cell number” value is given as “killed most cells”, the “P23H opsin on the plasma membrane” value is given as “increased”, the “Immunostaining HCS MEM-Total ratio Max (fit)” value was 0.019 and the EC50 was determined as 377 nM. For the same compound, the EC50 on mouse P23H opsin mutant (setting [1]) was 2700 nM. For the same compound, the Emax at mouse P23H opsin mutant (setting [2]) was 123%. Also, the Emax at mouse P23H opsin mutant (setting [3]) worked out at 159%. Also, at mouse P23H opsin mutant, the “dependence of activity on light exposure of cells” value was “required that cells be incubated in the dark”.

Take `O=C(CCCCCN1C(=O)c2cccc3cccc(c23)C1=O)NO` [Scriptaid, reference compound]: at mouse P23H opsin, the “Immunostaining HCS MEM-Total ratio Max (fit)” value is reported as 0.070. The EC50 is 380 nM at mouse P23H opsin and 3090 nM at mouse P23H opsin mutant (setting [1]). Moreover, on mouse P23H opsin mutant, the “activity in rescuing P23H opsin transport (in words)” value is “strong activity”. Moreover, the Emax came to 98% on mouse P23H opsin mutant (setting [2]) and 98.2% at mouse P23H opsin mutant (setting [3]).

Consider `O=C1OCC(c2ccc(Cl)s2)=C1c1cccs1` [YC-001], for which the “ratio of P23H opsin stain in the ER region to total P23H opsin staining” value at mouse P23H opsin (FIG. 2M,N) is “decreased”. In addition, the “effect on cell number” value at mouse P23H opsin was “did not affect cell number”. Besides, the “P23H opsin on the plasma membrane” value at mouse P23H opsin is “increased”. Besides, the “Immunostaining HCS MEM-Total ratio Max (fit)” value on mouse P23H opsin is 0.030. Further, the EC50 worked out at 2750 nM on mouse P23H opsin; 7800 nM at mouse P23H opsin mutant (HTS hit confirmation, FIG. 1E, read-out: potency); 8700 nM on mouse P23H opsin mutant (setting [1]); 8390 nM at mouse P23H opsin mutant (Table 5, more than one site modified, read-out: Potency). Also, the “time to maximum activity” value on mouse P23H opsin mutant (FIG. 1F, 40 μM YC-001) is reported as not above 15 h. Further, the Emax is 310% at mouse P23H opsin mutant (setting [2]), 310% on mouse P23H opsin mutant (setting [3]) and 248% on mouse P23H opsin mutant (read-out: Efficacy (%)). Further, the “effect of co-treatment with scriptaid on P23H opsin transport” value at mouse P23H opsin mutant (YC-001 and scriptaid co-treatment) was “synergistic effect”. In addition, the “dependence of activity on light exposure of cells” value at mouse P23H opsin mutant was “not affected”. Also, at mouse P23H opsin mutant (with 5 μM 9-cis-retinal, FIG. 1G), the “effect of co-treatment with 9-cis-retinal” value is “No additive effect”.
